Measurements published in patent US9765087B2, “Benzimidazole derivatives” (ENANTA PHARMACEUTICALS, INC., priority 2009, dated 2017).
Like-named read-outs stand apart in the source and are kept apart here.

System: HCV 1b genotype replicon
Test: HCV replicon assay (qRT-PCR or luciferase), genotype 1b
Assay type: cell-based
Details: Hepatitis C virus
Source text: HCV replicon cell lines (kindly provided by R. Bartenschlager) isolated from colonies as described by Lohman et. al. (Lohman et al. (1999) Science 285: 110-113, expressly incorporated by reference in its entirety) and used for all experiments. The HCV replicon has the nucleic acid sequence set forth in EMBL Accession No.: AJ242651, the coding sequence of which is from nucleotides 1801 to 8406.
The coding sequence of the published HCV replicon was synthesized and subsequently assembled in a modified plasmid pBR322 (Promega, Madison, Wis.) using standard molecular biology techniques. One replicon cell line (“SGR 11-7”) stably expresses HCV replicon RNA which consists of (i) the HCV 5′UTR fused to the first 12 amino acids of the capsid protein, (ii) the neomycin phosphotransferase gene (neo), (iii) the IRES from encephalomyocarditis virus (EMCV), and (iv) HCV […] to NSSB genes and the HCV 3′UTR. Another replicon cell line (“Huh-luc/neo-ET”) described by Vrolijk et. al. (Vrolijk et. al. (2003) Journal of Virological Methods 110:201-209, expressly incorporated by reference in its entirety) stably expresses HCV replicon RNA which consists of (i) the HCV 5′UTR fused to the first 12 amino acids of the capsid protein, (ii) the firefly luciferase reporter gene, (iii) the ubiquitin gene, (iv) the neomycin phosphotransferase gene (neo), (v) the IRES from encephalomyocarditis virus (EMCV), and (vi) HCV NS3 to NS5B genes that harbor cell culture adaptive mutations (E1202G, T1280I, K1846T) and the HCV 3′UTR.
These cell lines were maintained at 37° C., 5% CO2, 100% relative humidity in DMEM (Cat#11965-084, Invitrogen), with 10% fetal calf serum (“FCS”, Invitrogen), 1% non-essential amino acids (Invitrogen), 1% of Glutamax (Invitrogen), 1% of 100× penicillin/streptomycin (Cat#15140-122, Invitrogen) and Geneticin (Cat#10131-027, Invitrogen) at 0.75 mg/ml or 0.5 mg/ml for 11-7 and Huh-luc/neo-ET cells, respectively.
EC50 values of single agent compounds and combinations were determined by HCV RNA detection using quantitative RT-PCR, according to the manufacturer's instructions, with a TAQMAN® One-Step RT-PCR Master Mix Reagents Kit (Cat#AB 4309169, Applied Biosystems) on an ABI Model 7500 thermocycler. The TaqMan primers used for detecting and quantifying HCV RNA were obtained from Integrated DNA Technologies. HCV RNA was normalized to GAPDH RNA levels in drug-treated cells, which is detected and quantified using the Human GAPDH Endogenous Control Mix (Applied Biosystems, AB 4310884E). Total cellular RNA is purified from 96-well plates using the RNAqueous 96 kit (Ambion, Cat# AM1812). Chemical agent cytotoxicity is evaluated using an MTS assay according to the manufacturer's directions (Promega).
Since clinical drug resistance often develops in viral infections following single agent therapies, there is a need to assess the additive, antagonistic, or synergistic properties of combination therapies. We used the HCV replicon system to assess the potential use of the compound of the present invention or in combination therapies with Interferon alpha, cyclosporine analogs and inhibitors targeting other HCV proteins. The acute effects of a single or combinations of drugs are studied in the “Huh-luc/neo-ET” replicon with each chemical agent titrated in an X or Y direction in a 6 point two-fold dilution curve centered around the EC50 of each drug. Briefly, replicon cells are seeded at 7,000 cells per well in 90 ul DMEM (without phenol red, Invitrogen Cat.#31053-036) per well with 10% FCS, 1% non-essential amino acids, 1% of Glutamax and 1% of 100× penicillin/streptomycin and incubated overnight at 37° C., 5% CO2, 100% relative humidity. […]

[1] = Table 11, qRT-PCR or luciferase assay, read-out: Genotype-1b replicon EC50 Range
[2] = Table 12, numeric values, read-out: 1b EC50

Row | SMILES | EC50 [1] [nM] | EC50 [2] [nM]
1 | COC(=O)N[C@H](C(=O)N1CCC[C@H]1c1nc(CCc2ccc3cc(-c4ccc5[nH]c([C@@H]6CCCN6C(=O)[C@@H](NC(=O)OC)C(C)C)nc5c4)ccc3c2)c[nH]1)C(C)C [Example 472] | < 1 | –
2 | COC(=O)N[C@H](C(=O)N1CC2(CC2)C[C@H]1c1ncc(-c2ccc(C#Cc3ccc4nc([C@@H]5CC6(CC6)CN5C(=O)[C@H](NC(=O)OC)c5ccccc5)[nH]c4c3)cc2)[nH]1)C(C)C [Example 578] | – | 0.006
3 | COC(=O)N[C@H](C(=O)N1CCC[C@H]1c1nc2cc(C#Cc3ccc(-c4c[nH]c([C@@H]5CCCN5C(=O)OC(C)(C)C)n4)cc3)ccc2[nH]1)C(C)C [Example 510] | < 1 | –
4 | COC(=O)N[C@@H](C(=O)N1CCC[C@H]1c1nc2ccc(CCc3ccc(-c4cnc([C@@H]5CCCN5C(=O)[C@H](NC(=O)OC)c5ccccc5)o4)cc3)cc2[nH]1)c1ccccc1 [Example 534] | < 1 | –
5 | COC(=O)N[C@H](C(=O)N1CCC[C@H]1c1nc(-c2ccc(C#Cc3ccc4[nH]c([C@@H]5CCCN5C(=O)OC(C)(C)C)nc4c3)cc2)c[nH]1)C(C)C [Example 500] | 1 to 10 | –
6 | COC(=O)N[C@H](C(=O)N1CCC[C@H]1c1nc2cc(-c3ccc4cc(-c5c[nH]c([C@@H]6CCCN6C(=O)[C@@H](NC(=O)OC)[C@@H](C)OC)n5)ccc4c3)ccc2[nH]1)[C@@H](C)O [Example 465] | < 1 | –
7 | COC(=O)N[C@H](C(=O)N1CCC[C@H]1c1ncc(-c2ccc([C@@H]3C[C@H]3c3ccc4nc([C@@H]5CCCN5C(=O)[C@@H](NC(=O)OC)C(C)C)[nH]c4c3)cc2)[nH]1)C(C)C [Example 497-b] | < 1 | –
8 | COC(=O)N[C@H](C(=O)N1CCC[C@H]1c1ncc(-c2ccc(C#Cc3ccc4nc([C@@H]5C[C@@H](Oc6ccccc6)CN5C(=O)[C@@H](NC(=O)OC)C(C)C)[nH]c4c3)cc2)[nH]1)C(C)C [Example 537] | < 1 | –
9 | COC(=O)N[C@H](C(=O)N1CC2(CC2)C[C@H]1c1nc(-c2ccc(C#Cc3ccc4[nH]c([C@@H]5CC6(CC6)CN5C(=O)[C@@H](NC(=O)OC)C(C)C)nc4c3)cc2)c[nH]1)C(C)C [Example 548] | – | 0.004
10 | COC(=O)N[C@H](C(=O)N1CCC[C@H]1c1nc(C#Cc2ccc(-c3ccc4[nH]c([C@@H]5CCCN5C(=O)[C@@H](NC(=O)OC)C(C)C)nc4c3)cc2)c[nH]1)C(C)C [Example 468] | < 1 | –
11 | COC(=O)N[C@H](C(=O)N1CCC[C@H]1c1ncc(-c2ccc(C#Cc3ccc4nc([C@@H]5CCCN5C(=O)[C@@H](NC(=O)OC)C(C)(C)O)[nH]c4c3)cc2)[nH]1)C(C)C [Example 530] | < 1 | –
12 | COC(=O)N[C@@H](C(=O)N1CCC[C@H]1c1nc(-c2ccc(CCc3ccc4[nH]c([C@@H]5CCCN5C(=O)[C@H](NC(=O)OC)c5ccccc5)nc4c3)cc2)n[nH]1)c1ccccc1 [Example 443] | < 1 | –
13 | COC(=O)N[C@H](C(=O)N1CCC[C@H]1c1ncc(-c2ccc(CCCc3ccc4[nH]c([C@@H]5CCCN5C(=O)[C@@H](NC(=O)OC)C(C)C)nc4c3)cc2)[nH]1)C(C)C [Example 449] | < 1 | –
14 | CC[C@H](NC(=O)OC)C(=O)N1CCC[C@H]1c1nc2cc(C#Cc3ccc(-c4c[nH]c([C@@H]5CCCN5C(=O)[C@@H](NC(=O)OC)C(C)C)n4)cc3)ccc2[nH]1 [Example 502] | < 1 | –
15 | COC(=O)N[C@H](C(=O)N1CCC[C@H]1c1nc2cc(C#Cc3ccc(-c4c[nH]c([C@@H]5CCCN5C(=O)[C@@H](NC(C)=O)C(C)C)n4)cc3)ccc2[nH]1)C(C)C [Example 511] | < 1 | –
16 | COC(=O)N[C@@H](C)C(=O)N1CCC[C@H]1c1nc2cc(C#Cc3ccc(-c4c[nH]c([C@@H]5CCCN5C(=O)[C@@H](NC(=O)OC)C(C)C)n4)cc3)ccc2[nH]1 [Example 501] | < 1 | –
17 | COC(=O)N[C@H](C(=O)N1CC2(CC2)C[C@H]1c1nc2cc(C#Cc3ccc(-c4coc([C@@H]5CC6(CC6)CN5C(=O)[C@@H](NC(=O)OC)C(C)C)n4)cc3)ccc2[nH]1)C(C)C [Example 577] | – | 0.16
18 | COC(=O)N[C@H](C(=O)N1CCC[C@H]1c1ncc(-c2ccc(C#Cc3ccc4nc([C@@H]5CCCN5C(=O)[C@@H](NC(=O)OC)[C@H](C)O)[nH]c4c3)cc2)[nH]1)C(C)C [Example 531] | < 1 | –
19 | COC(=O)N[C@@H](C(=O)N1CCC[C@H]1c1cc(-c2ccc(C#Cc3ccc4[nH]c([C@@H]5CCCN5C(=O)[C@H](NC(=O)OC)c5ccccc5)nc4c3)cc2)n[nH]1)c1ccccc1 [Example 445] | < 1 | –
20 | COC(=O)N[C@H](C(=O)N1CCC[C@H]1c1nc(-c2ccc(CCc3ccc4nc([C@@H]5CCCN5C(=O)[C@@H](NC(=O)OC)C(C)C)[nH]c4c3)s2)c[nH]1)C(C)C [Example 454] | < 1 | –
21 | COC(=O)N[C@H](C(=O)N1CCC[C@H]1c1ncc(-c2ccc(C#Cc3ccc4nc([C@]5(Cc6ccccc6)CCCN5C(=O)[C@@H](NC(=O)OC)C(C)C)[nH]c4c3)cc2)[nH]1)C(C)C [Example 536] | < 1 | –
22 | COC(=O)N[C@H](C(=O)N1CCC[C@H]1c1nc(-c2ccc(C#Cc3ccc4[nH]c([C@@H]5CC(F)(F)CN5C(=O)[C@@H](NC(=O)OC)C(C)C)nc4c3)cc2)c[nH]1)C(C)C [Example 519] | < 1 | –
23 | COC(=O)N[C@H](C(=O)N1CCC[C@H]1c1nc(-c2ccc(/C=C/c3ccc4[nH]c([C@@H]5CCCN5C(=O)[C@@H](NC(=O)OC)C(C)C)nc4c3)s2)c[nH]1)C(C)C [Example 453] | < 1 | –
24 | COC(=O)N[C@@H](C(=O)N1CCC[C@H]1c1ncc(-c2ccc(CCc3ccc4nc([C@@H]5CCCN5C(=O)[C@H](NC(=O)OC)c5ccccc5)[nH]c4c3)cc2)[nH]1)c1ccccc1 [Example 2-2] | < 1 | –
25 | COC(=O)N[C@H](C(=O)N1CCC[C@H]1c1ncc(-c2ccc3cc(-c4ccc5nc([C@@H]6C[C@H](C7CC7)CN6C(=O)[C@@H](NC(=O)OC)C(C)C)[nH]c5c4)ccc3c2)[nH]1)C(C)C [Example 642] | – | 0.007
26 | CC[C@H](C)[C@H](NC(=O)OC)C(=O)N1CCC[C@H]1c1ncc(-c2ccc(C#Cc3ccc4nc([C@@H]5CCCN5C(=O)[C@@H](NC(=O)OC)[C@@H](C)CC)[nH]c4c3)cc2)[nH]1 [Example 526] | < 1 | –
27 | COC(=O)N[C@H](C(=O)N1CCC[C@H]1c1nc(C#Cc2ccc3cc(-c4ccc5[nH]c([C@@H]6CCCN6C(=O)[C@@H](NC(=O)OC)C(C)C)nc5c4)ccc3c2)c[nH]1)C(C)C [Example 471] | < 1 | –
28 | COC(=O)N[C@H](C(=O)N1CC2(CC2)C[C@H]1c1nc2cc(C#Cc3ccc(-c4cn(O)c([C@@H]5CC6(CC6)CN5C(=O)[C@@H](NC(=O)OC)C(C)C)n4)cc3)ccc2[nH]1)C(C)C [Example 571] | – | 0.013
29 | COC(=O)N[C@H](C(=O)N1CCC[C@H]1c1nc(-c2ccc3cc(/C=C/c4ccc5[nH]c([C@@H]6CCCN6C(=O)[C@@H](NC(=O)OC)C(C)C)nc5c4)ccc3c2)c[nH]1)C(C)C [Example 477] | < 1 | –
30 | COC(=O)N[C@H](C(=O)N1CCC[C@H]1c1ncc(-c2ccc(C#Cc3ccc4nc([C@@H]5C[C@@]6(CCCCO6)CN5C(=O)[C@@H](NC(=O)OC)C(C)C)[nH]c4c3)cc2)[nH]1)C(C)C [Example 632] | – | 0.013
